Data published in US20040132751A1, “Use of desoxypeganine for treating central nervous system symptoms resulting from intoxications by psychotrops” (priority 2001, published 2004).

Test system: rats
Assay: animal experiments: recovery of cognitive abilities in rats after administration of deoxypeganine
Assay type: in vivo
Details: restoration did not occur, or occurred only considerably later, in untreated control animals

**Q.** With `c1ccc2c(c1)CN1CCCC1=N2` [deoxypeganine, 1,2,3,9-tetrahydropyrrolo[2,1-b]quinazoline] as the molecule, how does the “recovery of cognitive abilities” value read?
**A.** able to bring about a recovery of cognitive abilities
